Species: Rattus norvegicus
Assay: DrugMatrix - Regimen: Daily Repeat
Format: toxicity, organism-based, Sprague-Dawley
Set-up: regimen Daily Repeat, gender Male, age 6-8 weeks
Conditions: in vivo, po, 800 mg/kg, route oral GAVAGE, dose level High, vehicle .5 % CMC; for BASOPHIL / EOSINOPHIL / ERYTHROCYTE COUNT / HEMATOCRIT / HEMOGLOBIN / LEUKOCYTE COUNT / LYMPHOCYTE / MEAN CORPUSCULAR HEMOGLOBIN / MEAN CORPUSCULAR HEMOGLOBIN CONCENTRATION / MEAN CORPUSCULAR VOLUME / MONOCYTE / NEUTROPHIL / PLATELET COUNT: tissue Blood; for ALANINE AMINOTRANSFERASE / ALBUMIN / ALKALINE PHOSPHATASE / ASPARTATE AMINOTRANSFERASE / BLOOD UREA NITROGEN / CARBON DIOXIDE / CHLORIDE / CHOLESTEROL / CREATINE PHOSPHOKINASE / CREATININE / GLUCOSE / LACTATE DEHYDROGENASE / LIPASE / PHOSPHORUS / POTASSIUM / SODIUM / TOTAL BILIRUBIN / TOTAL PROTEIN / URIC ACID: tissue Plasma

How did the BASOPHIL (72 h, time 3 day) turn out when Oc1ccc(O)cc1 [HYDROQUINONE] was run?
Its BASOPHIL is 0.25%.

What about the EOSINOPHIL (72 h, time 3 day) of the same compound?
Its EOSINOPHIL is 0.45%.

What about the “ERYTHROCYTE COUNT” value (72 h, time 3 day) of the same compound?
Its value is 6.72 x10E6/uL.

And the HEMATOCRIT (72 h, time 3 day)?
The HEMATOCRIT was 44.05%.

What about the HEMOGLOBIN (72 h, time 3 day) of the same compound?
The HEMOGLOBIN was 14.5 G/DL.

And the “LEUKOCYTE COUNT” value (72 h, time 3 day)?
The value was 7.7 x10E3/uL.

What about the LYMPHOCYTE (72 h, time 3 day) of the same compound?
Its LYMPHOCYTE is 89.1%.

What about the “MEAN CORPUSCULAR HEMOGLOBIN” value (72 h, time 3 day) of the same compound?
Its value is 21.6 pg.

What about the “MEAN CORPUSCULAR HEMOGLOBIN CONCENTRATION” value (72 h, time 3 day) of the same compound?
The value was 32.9 G/DL.

And the “MEAN CORPUSCULAR VOLUME” value (72 h, time 3 day)?
Its value is 65.5 fL.

And the MONOCYTE (72 h, time 3 day)?
The MONOCYTE was 1.5%.

And the NEUTROPHIL (72 h, time 3 day)?
The NEUTROPHIL was 7.45%.

What about the “PLATELET COUNT” value (72 h, time 3 day) of the same compound?
The value was 1149.5 x10E3/uL.

What about the “ALANINE AMINOTRANSFERASE” value (72 h, time 3 day) of the same compound?
The value was 48 u/L.

And the ALBUMIN (72 h, time 3 day)?
Its ALBUMIN is 4.2 G/DL.

And the “ALKALINE PHOSPHATASE” value (72 h, time 3 day)?
Its value is 309.5 u/L.

And the “ASPARTATE AMINOTRANSFERASE” value (72 h, time 3 day)?
The value was 52 u/L.

And the “BLOOD UREA NITROGEN” value (72 h, time 3 day)?
The value was 15.5 mg/dL.

What about the “CARBON DIOXIDE” value (72 h, time 3 day) of the same compound?
Its value is 23 mmol/L.

What about the CHLORIDE (72 h, time 3 day) of the same compound?
The CHLORIDE was 107.5 MEQ/L.

What about the CHOLESTEROL (72 h, time 3 day) of the same compound?
The CHOLESTEROL was 80.5 mg/dL.

What about the “CREATINE PHOSPHOKINASE” value (72 h, time 3 day) of the same compound?
Its value is 183 u/L.

What about the CREATININE (72 h, time 3 day) of the same compound?
The CREATININE was 0.45 mg/dL.

And the GLUCOSE (72 h, time 3 day)?
The GLUCOSE was 164 mg/dL.

And the “LACTATE DEHYDROGENASE” value (72 h, time 3 day)?
The value was 102 u/L.

And the LIPASE (72 h, time 3 day)?
The LIPASE was 23.5 u/L.

What about the PHOSPHORUS (72 h, time 3 day) of the same compound?
The PHOSPHORUS was 13.75 mg/dL.

What about the POTASSIUM (72 h, time 3 day) of the same compound?
Its POTASSIUM is 6.4 MEQ/L.

And the SODIUM (72 h, time 3 day)?
Its SODIUM is 150 MEQ/L.

And the “TOTAL BILIRUBIN” value (72 h, time 3 day)?
Its value is 0.3 mg/dL.

What about the “TOTAL PROTEIN” value (72 h, time 3 day) of the same compound?
Its value is 6.5 G/DL.

What about the “URIC ACID” value (72 h, time 3 day) of the same compound?
The value was 2.25 mg/dL.

What about the BASOPHIL (120 h, time 5 day) of the same compound?
Its BASOPHIL is 0.2%.

And the EOSINOPHIL (120 h, time 5 day)?
Its EOSINOPHIL is 0.3%.

And the “ERYTHROCYTE COUNT” value (120 h, time 5 day)?
Its value is 6.45 x10E6/uL.

What about the HEMATOCRIT (120 h, time 5 day) of the same compound?
The HEMATOCRIT was 41.5%.

And the HEMOGLOBIN (120 h, time 5 day)?
The HEMOGLOBIN was 13.7 G/DL.

And the “LEUKOCYTE COUNT” value (120 h, time 5 day)?
Its value is 10.53 x10E3/uL.

And the LYMPHOCYTE (120 h, time 5 day)?
Its LYMPHOCYTE is 89%.

And the “MEAN CORPUSCULAR HEMOGLOBIN” value (120 h, time 5 day)?
Its value is 21.3 pg.

And the “MEAN CORPUSCULAR HEMOGLOBIN CONCENTRATION” value (120 h, time 5 day)?
The value was 33.1 G/DL.

What about the “MEAN CORPUSCULAR VOLUME” value (120 h, time 5 day) of the same compound?
The value was 64.4 fL.

And the MONOCYTE (120 h, time 5 day)?
The MONOCYTE was 1.6%.

And the NEUTROPHIL (120 h, time 5 day)?
The NEUTROPHIL was 6.2%.

And the “PLATELET COUNT” value (120 h, time 5 day)?
The value was 1513 x10E3/uL.

What about the “ALANINE AMINOTRANSFERASE” value (120 h, time 5 day) of the same compound?
Its value is 36.5 u/L.

What about the ALBUMIN (120 h, time 5 day) of the same compound?
Its ALBUMIN is 4.2 G/DL.

And the “ALKALINE PHOSPHATASE” value (120 h, time 5 day)?
The value was 411 u/L.

What about the “ASPARTATE AMINOTRANSFERASE” value (120 h, time 5 day) of the same compound?
Its value is 55 u/L.

What about the “BLOOD UREA NITROGEN” value (120 h, time 5 day) of the same compound?
Its value is 15.5 mg/dL.

And the “CARBON DIOXIDE” value (120 h, time 5 day)?
Its value is 27 mmol/L.

What about the CHLORIDE (120 h, time 5 day) of the same compound?
The CHLORIDE was 105 MEQ/L.

What about the CHOLESTEROL (120 h, time 5 day) of the same compound?
Its CHOLESTEROL is 70.5 mg/dL.

What about the “CREATINE PHOSPHOKINASE” value (120 h, time 5 day) of the same compound?
The value was 206 u/L.

And the CREATININE (120 h, time 5 day)?
The CREATININE was 0.25 mg/dL.

What about the GLUCOSE (120 h, time 5 day) of the same compound?
The GLUCOSE was 163 mg/dL.

And the “LACTATE DEHYDROGENASE” value (120 h, time 5 day)?
Its value is 87.5 u/L.

What about the LIPASE (120 h, time 5 day) of the same compound?
The LIPASE was 20 u/L.

What about the PHOSPHORUS (120 h, time 5 day) of the same compound?
The PHOSPHORUS was 12.6 mg/dL.

What about the POTASSIUM (120 h, time 5 day) of the same compound?
Its POTASSIUM is 6.1 MEQ/L.

What about the SODIUM (120 h, time 5 day) of the same compound?
The SODIUM was 148 MEQ/L.

What about the “TOTAL BILIRUBIN” value (120 h, time 5 day) of the same compound?
Its value is 0.55 mg/dL.

What about the “TOTAL PROTEIN” value (120 h, time 5 day) of the same compound?
Its value is 6.5 G/DL.

And the “URIC ACID” value (120 h, time 5 day)?
Its value is 2.05 mg/dL.

What about the BASOPHIL ([…], time 14 day) of the same compound?
Its BASOPHIL is 0.8%.

And the EOSINOPHIL ([…], time 14 day)?
Its EOSINOPHIL is 0.2%.

What about the “ERYTHROCYTE COUNT” value ([…], time 14 day) of the same compound?
The value was 6.87 x10E6/uL.

And the HEMATOCRIT ([…], time 14 day)?
The HEMATOCRIT was 42.85%.

And the HEMOGLOBIN ([…], time 14 day)?
Its HEMOGLOBIN is 14.03 G/DL.

What about the “LEUKOCYTE COUNT” value ([…], time 14 day) of the same compound?
Its value is 14.3 x10E3/uL.

What about the LYMPHOCYTE ([…], time 14 day) of the same compound?
The LYMPHOCYTE was 83.92%.

What about the “MEAN CORPUSCULAR HEMOGLOBIN” value ([…], time 14 day) of the same compound?
Its value is 20.45 pg.

What about the “MEAN CORPUSCULAR HEMOGLOBIN CONCENTRATION” value ([…], time 14 day) of the same compound?
Its value is 32.83 G/DL.

What about the “MEAN CORPUSCULAR VOLUME” value ([…], time 14 day) of the same compound?
Its value is 62.4 fL.

What about the MONOCYTE ([…], time 14 day) of the same compound?
Its MONOCYTE is 1.9%.

And the NEUTROPHIL ([…], time 14 day)?
Its NEUTROPHIL is 11.55%.

And the “PLATELET COUNT” value ([…], time 14 day)?
The value was 1262 x10E3/uL.

And the “ALANINE AMINOTRANSFERASE” value ([…], time 14 day)?
The value was 50 u/L.

And the ALBUMIN ([…], time 14 day)?
The ALBUMIN was 4.45 G/DL.

What about the “ALKALINE PHOSPHATASE” value ([…], time 14 day) of the same compound?
The value was 349.75 u/L.

What about the “ASPARTATE AMINOTRANSFERASE” value ([…], time 14 day) of the same compound?
The value was 70.25 u/L.

And the “BLOOD UREA NITROGEN” value ([…], time 14 day)?
Its value is 16.25 mg/dL.

And the “CARBON DIOXIDE” value ([…], time 14 day)?
Its value is 30.25 mmol/L.

And the CHLORIDE ([…], time 14 day)?
The CHLORIDE was 103.5 MEQ/L.

And the CHOLESTEROL ([…], time 14 day)?
The CHOLESTEROL was 84.5 mg/dL.

What about the “CREATINE PHOSPHOKINASE” value ([…], time 14 day) of the same compound?
The value was 254.25 u/L.

And the CREATININE ([…], time 14 day)?
Its CREATININE is 0.4 mg/dL.

What about the GLUCOSE ([…], time 14 day) of the same compound?
The GLUCOSE was 161.5 mg/dL.

And the “LACTATE DEHYDROGENASE” value ([…], time 14 day)?
The value was 60.75 u/L.

What about the LIPASE ([…], time 14 day) of the same compound?
Its LIPASE is 17.25 u/L.

What about the PHOSPHORUS ([…], time 14 day) of the same compound?
The PHOSPHORUS was 12.07 mg/dL.

And the POTASSIUM ([…], time 14 day)?
The POTASSIUM was 6.7 MEQ/L.

What about the SODIUM ([…], time 14 day) of the same compound?
The SODIUM was 150.25 MEQ/L.

And the “TOTAL BILIRUBIN” value ([…], time 14 day)?
The value was 0.55 mg/dL.

What about the “TOTAL PROTEIN” value ([…], time 14 day) of the same compound?
The value was 6.97 G/DL.

And the “URIC ACID” value ([…], time 14 day)?
Its value is 1 mg/dL.

Reference: ChEMBL document CHEMBL3885881, “DrugMatrix”
